Test results reported in patent US20260116868A1 (Arcus Biosciences, Inc., priority 2023, published 2026).

These molecules were tested against T1, Cbl-b (Homo sapiens, UniProt Q13191) (assay: Cbl-b probe displacement HTRF binding assay). Settings: 0.4 nM Cbl-b, 150 nM BODIPY probe.
T1 construct: biotin (biotinylated protein)
T1 sequence (Q13191 whole entry, species assumed): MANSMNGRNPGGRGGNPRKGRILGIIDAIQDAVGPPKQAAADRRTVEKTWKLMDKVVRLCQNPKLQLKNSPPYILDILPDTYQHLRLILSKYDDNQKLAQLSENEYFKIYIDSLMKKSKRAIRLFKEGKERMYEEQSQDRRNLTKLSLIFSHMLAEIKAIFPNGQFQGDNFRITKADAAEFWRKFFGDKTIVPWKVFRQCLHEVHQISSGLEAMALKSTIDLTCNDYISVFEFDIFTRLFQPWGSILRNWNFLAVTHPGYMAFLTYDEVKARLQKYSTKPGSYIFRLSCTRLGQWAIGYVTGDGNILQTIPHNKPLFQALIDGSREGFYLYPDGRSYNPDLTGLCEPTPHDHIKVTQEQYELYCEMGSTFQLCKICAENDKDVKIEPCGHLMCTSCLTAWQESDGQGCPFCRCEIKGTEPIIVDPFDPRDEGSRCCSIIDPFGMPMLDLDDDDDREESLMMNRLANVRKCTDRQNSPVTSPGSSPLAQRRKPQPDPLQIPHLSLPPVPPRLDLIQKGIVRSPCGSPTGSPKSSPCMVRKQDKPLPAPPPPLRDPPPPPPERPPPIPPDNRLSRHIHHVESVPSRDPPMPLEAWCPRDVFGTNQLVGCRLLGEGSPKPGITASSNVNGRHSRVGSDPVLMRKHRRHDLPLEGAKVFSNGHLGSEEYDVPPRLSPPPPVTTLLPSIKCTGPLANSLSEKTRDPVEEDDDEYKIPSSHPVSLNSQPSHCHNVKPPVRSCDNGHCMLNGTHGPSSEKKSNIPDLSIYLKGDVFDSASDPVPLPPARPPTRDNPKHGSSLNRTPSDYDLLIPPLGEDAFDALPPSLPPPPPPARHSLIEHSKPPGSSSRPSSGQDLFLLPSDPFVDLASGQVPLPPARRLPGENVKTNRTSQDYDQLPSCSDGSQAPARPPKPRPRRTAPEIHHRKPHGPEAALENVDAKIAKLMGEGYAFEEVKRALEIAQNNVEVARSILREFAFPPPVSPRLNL
Summary of the method: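 Binding IC50 from four-parameter fit of HTRF signal loss, normalised to DMSO (0%) and no-protein (100%) wells. Biotinylated Cbl-b 0.4 nM was preincubated 60 min with compound (20-point 1:2 dilution) before 15 min with 150 nM BODIPY probe; Tb-streptavidin detection.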
O=C(Nc1cc(-c2ccc(Cl)cc2C(=O)N2CC(F)(F)C2)cc(C2CC2)n1)c1cc(CNCC2CCC2)cn(C2CC2)c1=O [Example 370] was tested, and the IC50 was < 100 nM. With CC(C)Oc1cc(-c2ccc(C#N)cc2C(=O)N2CC(F)(F)C2)cc(NC(=O)c2cc(CNC[C@@H]3COCCO3)cn(C3CC3)c2=O)n1 [Example 371] the IC50 was < 100 nM. For COC[C@H](C)NCc1cc(C(=O)Nc2cc(-c3ccc(Cl)cc3C(=O)N3CC(F)(F)C3)cc(C3CC3)n2)c(=O)n(C2CC2)c1 [Example 372], the IC50 was < 100 nM. In the case of CCOc1cc(-c2ccc(F)cc2C(=O)N2CC(F)(F)C2)cc(NC(=O)c2cc(CNC[C@H](C)OC)cn(C3CC3)c2=O)n1 [Example 373], the IC50 is reported as < 100 nM. In the case of COCCNCc1cc(C(=O)Nc2cc(-c3ccc(C#N)cc3C(=O)N3CC(F)(F)C3)cc(C3CC3)n2)c(=O)n(C2CC2)c1 [Example 374], the IC50 is reported as < 100 nM. For N#Cc1ccc(-c2cc(NC(=O)c3cc(CNCCCF)cn(C4CC4)c3=O)nc(C3CC3)c2)c(C(=O)N2CC(F)(F)C2)c1 [Example 375], the IC50 was < 100 nM. With C[C@H](NCc1cc(C(=O)Nc2cc(-c3ccc(C#N)cc3C(=O)N3CC(F)(F)C3)cc(C3CC3)n2)c(=O)n(C2CC2)c1)C1CCCO1 (some centres unmarked) [Example 376] the IC50 was < 100 nM. In the case of CC(C)Oc1cc(-c2ccc(OC(F)F)cc2C(=O)N2CC(F)C2)cc(NC(=O)c2cc(CNC[C@@H]3COCCO3)cn(C)c2=O)n1 [Example 377], the IC50 is reported as < 100 nM. O=C(Nc1cc(-c2ccc(Cl)cc2C(=O)N2CC(F)(F)C2)cc(C2CC2)n1)c1cc(CNC[C@@H]2CCCO2)cn(C2CC2)c1=O [Example 378] was tested, and the IC50 was < 100 nM. For O=C(Nc1cc(-c2ccc(OC(F)F)cc2C(=O)N2CC(F)(F)C2)cc(C2CC2)n1)c1cc(CNC[C@@H]2COCCO2)cn(C2CC2)c1=O [Example 379], the IC50 was < 100 nM. CO[C@@H](C)CNCc1cc(C(=O)Nc2cc(-c3ccc(F)cc3C(=O)N3CC(F)(F)C3)cc(NC(C)C)n2)c(=O)n(C)c1 [Example 380] was tested, and the IC50 was < 100 nM. For N#Cc1ccc(-c2cc(NC(=O)c3cc(CNCCC(F)F)cn(C4CC4)c3=O)nc(C3CC3)c2)c(C(=O)N2CC(F)(F)C2)c1 [Example 381], the IC50 was < 100 nM. For COCCNCc1cc(C(=O)Nc2cc(-c3ccc(Cl)cc3C(=O)N3CC(F)(F)C3)cc(C3CC3)n2)c(=O)n(C2CC2)c1 [Example 382], the IC50 was < 100 nM. N#Cc1ccc(-c2cc(NC(=O)c3cc(CNCC4CC4)cn(C4CC4)c3=O)nc(C3CC3)c2)c(C(=O)N2CC(F)(F)C2)c1 [Example 383] was tested, and the IC50 was < 100 nM. For C[C@@H]1C[C@H]1CNCc1cc(C(=O)Nc2cc(-c3ccc(Cl)cc3C(=O)N3CC(F)(F)C3)cc(C3CC3)n2)c(=O)n(C2CC2)c1 [Example 384], the IC50 was < 100 nM. For CC1(CNCc2cc(C(=O)Nc3cc(-c4ccc(C#N)cc4C(=O)N4CC(F)(F)C4)cc(C4CC4)n3)c(=O)n(C3CC3)c2)CC1 [Example 385], the IC50 was < 100 nM. For CC(C)Oc1cc(-c2ccc(C#N)cc2C(=O)N2CC(F)(F)C2)cc(NC(=O)c2cc(CNC[C@@H]3COCCO3)cn(C)c2=O)n1 [Example 386], the IC50 was < 100 nM. CO[C@@H](C)CNCc1cc(C(=O)Nc2cc(-c3ccc(F)cc3C(=O)N3CC(F)(F)C3)cc(OC(C)C)n2)c(=O)n(C)c1 [Example 387] was tested, and the IC50 was < 100 nM. O=C(Nc1cc(-c2ccc(OC(F)F)cc2C(=O)N2CC(F)(F)C2)cc(C2CC2)n1)c1cc(CNC[C@@H]2CCCCO2)cn(C2CC2)c1=O [Example 388] was tested, and the IC50 was < 100 nM. CC(C)Oc1cc(-c2ccc(C#N)cc2C(=O)N2CC(F)(F)C2)cc(NC(=O)c2cc(CNC[C@@H]3CCCO3)cn(C)c2=O)n1 [Example 389] was tested, and the IC50 was < 100 nM. In the case of CC1(NCc2cc(C(=O)Nc3cc(-c4ccc(C#N)cc4C(=O)N4CC(F)(F)C4)cc(C4CC4)n3)c(=O)n(C3CC3)c2)CCC1 [Example 390], the IC50 is reported as < 100 nM. For N#Cc1ccc(-c2cc(NC(=O)c3cc(CNCCC(F)(F)F)cn(C4CC4)c3=O)nc(C3CC3)c2)c(C(=O)N2CC(F)(F)C2)c1 [Example 391], the IC50 was < 100 nM. For CC(C)Oc1cc(-c2ccc(C#N)cc2C(=O)N2CC(F)(F)C2)cc(NC(=O)c2cc(CNC[C@@H]3CCCCO3)cn(C3CC3)c2=O)n1 [Example 392], the IC50 was < 100 nM. CO[C@@H](C)CNCc1cc(C(=O)Nc2cc(-c3ccc(C#N)cc3C(=O)N3CC(F)(F)C3)cc(C3CC3)c2)c(=O)n(C2CC2)c1 [Example 393] was tested, and the IC50 was < 100 nM. For CO[C@@H](C)CNCc1cc(C(=O)Nc2cc(-c3ccc(C#N)cc3C(=O)N3CC(C)(F)C3)cc(C3CC3)n2)c(=O)n(C2CC2)c1 [Example 394], the IC50 was < 100 nM. With CC(C)[C@H](C)NCc1cc(C(=O)Nc2cc(-c3ccc(Cl)cc3C(=O)N3CC(F)(F)C3)cc(C3CC3)n2)c(=O)n(C2CC2)c1 [Example 395] the IC50 was < 100 nM. For CO[C@@H](C)CNCc1cc(C(=O)Nc2cc(-c3ccc(F)cc3C(=O)N3CC(F)(F)C3)cc(C3CC3)c2)c(=O)n(C2CC2)c1 [Example 396], the IC50 was < 100 nM. With N#Cc1ccc(-c2cc(NC(=O)c3cc(CNC4CCCC4)cn(C4CC4)c3=O)nc(C3CC3)c2)c(C(=O)N2CC(F)(F)C2)c1 [Example 397] the IC50 was < 100 nM. With O=C(Nc1cc(-c2ccc(Cl)cc2C(=O)N2CC(F)(F)C2)cc(C2CC2)n1)c1cc(CNC[C@@H]2CCCCO2)cn(C2CC2)c1=O [Example 398] the IC50 was < 100 nM. C[C@H]1CCCN(Cc2cc(C(=O)Nc3cc(-c4ccc(C#N)cc4C(=O)N4CC(F)(F)C4)cc(C4CC4)n3)c(=O)n(C3CC3)c2)C1 [Example 399] was tested, and the IC50 was < 100 nM. With N#Cc1ccc(-c2cc(NC(=O)c3cc(CNCC4(F)CCC4)cn(C4CC4)c3=O)nc(C3CC3)c2)c(C(=O)N2CC(F)(F)C2)c1 [Example 400] the IC50 was < 100 nM. With COC(C)(C)CNCc1cc(C(=O)Nc2cc(-c3ccc(C#N)cc3C(=O)N3CC(F)(F)C3)cc(C3CC3)n2)c(=O)n(C2CC2)c1 [Example 401] the IC50 was < 100 nM. In the case of CO[C@H]1CC[C@@H]1NCc1cc(C(=O)Nc2cc(-c3ccc(C#N)cc3C(=O)N3CC(F)(F)C3)cc(C3CC3)n2)c(=O)n(C2CC2)c1 [Example 402], the IC50 is reported as < 100 nM. COCCNCc1cc(C(=O)Nc2cc(-c3ccc(F)cc3C(=O)N3CC(F)(F)C3)cc(C3CC3)n2)c(=O)n(C2CC2)c1 [Example 403] was tested, and the IC50 was < 100 nM. For COCCNCc1cc(C(=O)Nc2cc(-c3ccc(F)cc3C(=O)N3CC(F)C3)cc(C3CC3)n2)c(=O)n(C2CC2)c1 [Example 404], the IC50 was < 100 nM. COCCNCc1cc(C(=O)Nc2cc(-c3c(Cl)cc(Cl)cc3C(=O)N3CC(F)(F)C3)cc(C3CC3)n2)c(=O)n(C2CC2)c1 [Example 405] was tested, and the IC50 was < 100 nM. With O=C(Nc1cc(-c2ccc(Cl)cc2C(=O)N2CC(F)(F)C2)cc(C2CC2)n1)c1cc(CNCC2CC2)cn(C2CC2)c1=O [Example 406] the IC50 was < 100 nM. In the case of CC(C)Oc1cc(-c2ccc(C#N)cc2C(=O)N2CC(F)(F)C2)cc(NC(=O)c2cc(CNC[C@@H]3CCCCO3)cn(C)c2=O)n1 [Example 407], the IC50 is reported as < 100 nM. For CC1(CNCc2cc(C(=O)Nc3cc(-c4ccc(Cl)cc4C(=O)N4CC(F)(F)C4)cc(C4CC4)n3)c(=O)n(C3CC3)c2)CC1 [Example 408], the IC50 was < 100 nM. N#Cc1ccc(-c2cc(NC(=O)c3cc(CN[C@H]4CCC[C@@H]4O)cn(C4CC4)c3=O)nc(C3CC3)c2)c(C(=O)N2CC(F)(F)C2)c1 [Example 409] was tested, and the IC50 was < 100 nM. With CC(C)CCNCc1cc(C(=O)Nc2cc(-c3ccc(Cl)cc3C(=O)N3CC(F)(F)C3)cc(C3CC3)n2)c(=O)n(C2CC2)c1 [Example 410] the IC50 was < 100 nM. CO[C@@H](C)CNCc1cc(C(=O)Nc2cc(-c3cc(Cl)c(Cl)cc3C(=O)N3CC(F)(F)C3)cc(C3CC3)n2)c(=O)n(C2CC2)c1 [Example 411] was tested, and the IC50 was < 100 nM. With N#Cc1ccc(-c2cc(NC(=O)c3cc(CNC[C@@H]4CCOC4)cn(C4CC4)c3=O)nc(C3CC3)c2)c(C(=O)N2CC(F)(F)C2)c1 [Example 412] the IC50 was < 100 nM.

What follows are molecules tested on Jurkat cells (assay: IL-2 secretion assay in Jurkat cells activated with CD3/CD28 T Cell Activator). Settings: Homo sapiens; Jurkat cells, CD3/CD28 T Cell Activator, 24 h, IL-2 AlphaLISA; read-out: IL-2 Secretion (EC50).
Assay type: cell-based
Method: Certain compounds were also evaluated in an IL-2 secretion assay. On the day of the assay, a 16 point, 1:2 master serial dilution of each compound was prepared in Opti-MEM to span a final concentration range of 10 μM to 300 pM. Assays were set up in CORNING® tissue culture-treated 384-well microplates containing 60 nL of each dilution. Jurkat cells grown in RPMI-1640 supplemented with 10% FBS, 1% Glutamax, and 1% Pen/Strep were collected, resuspended in Opti-MEM. 50,000 cells/well and added to the compound plates. After a short spin (1200 rpm for 1 min), the plates were incubated at 37° C. for 1 hour. The cells were activated by adding 15 μL of IMMUNOCULT™ Human CD3/CD28 T Cell Activator (STEMCELL Technologies) diluted in Opti-MEM. After 24 h of incubation at 37° C., aliquots of culture supernatants were transferred to OptiPlate-384 (PerkinElmer) microplates. The level of IL-2 secretion in the supernatants was then determined using the IL-2 (human) AlphaLISA Detection Kit (PerkinElmer) according to the manufacturer's recommendations. The AlphaLISA signal was measured using an EnVision plate reader (PerkinElmer). EC50 values were determined by fitting the data to a standard 4-parameter logistic equation. See Table 7 for data for select compounds (IL-2 Secretion (EC50)).
In the case of COCCNCc1cc(C(=O)Nc2cc(-c3ccc(F)cc3C(=O)N3CC(F)C3)cc(C3CC3)n2)c(=O)n(C2CC2)c1 [Example 67, N-(6-cyclopropyl-4-{4-fluoro-2-[(3-fluoro-1-azetidinyl)carbonyl]phenyl}-2-pyridyl)-1-cyclopropyl-5-[(2-methoxyethylamino)methyl]-2-oxo-1,2-dihydronicotinamide], the EC50 is reported as < 100 nM. For COCCNCc1cc(C(=O)Nc2cc(-c3ccc(F)cc3C(=O)N3CC(F)(F)C3)cc(C3CC3)n2)c(=O)n(C2CC2)c1 [Example 68, N-(6-cyclopropyl-4-{2-[(3,3-difluoro-1-azetidinyl)carbonyl]-4-fluorophenyl}-2-pyridyl)-1-cyclopropyl-5-[(2-methoxyethylamino)methyl]-2-oxo-1,2-dihydronicotinamide], the EC50 was < 100 nM. CO[C@@H](C)CNCc1cc(C(=O)Nc2cc(-c3ccc(Cl)cc3C(=O)N3CC(F)(F)C3)cc(OCC(F)(F)F)n2)c(=O)n(C2CC2)c1 [Example 82] was tested, and the EC50 was < 100 nM. With CO[C@@H](C)CNCc1cc(C(=O)Nc2cc(-c3ccc(Cl)cc3C(=O)N3CC(F)(F)C3)cc(OCC(F)F)n2)c(=O)n(C2CC2)c1 [Example 83] the EC50 was < 100 nM.
